Literature values, collected in US7396658B2, “Methods for screening HIF like ouabain-resistant Na+—K+-ATPase agents” (priority 1998, dated 2008).

Legend:
[1] = target: T1, ouabain-resistant α1 isoform (obtained from rat kidney) (Rattus norvegicus, UniProt P06685); conditions: α1 from rat kidney vs α2/α3 from rat brain axolemma; factor greater
T1 construct: the ouabain-resistant α1 isoform (obtained from rat kidney); host or cells: rat kidney tissue

[2] = target: ouabain-resistant Na^+—K^+-ATPase (Rattus norvegicus, UniProt P06685); conditions: generally needed

C[C@@H]1O[C@@H](O[C@H]2C[C@@H](O)[C@]3(CO)[C@H]4[C@H](O)C[C@]5(C)[C@@H](C6=CC(=O)OC6)CC[C@]5(O)[C@@H]4CC[C@]3(O)C2)[C@H](O)[C@H](O)[C@H]1O [ouabain]
concentrations of ouabain required for inactivation of the ouabain-resistant α1 isoform, relative to that for inactivating the ouabain-sensitive α2/α3 isoforms [1]: 10^2-10^3 | concentration needed to inhibit ouabain-resistant Na+-K+-ATPases relative to that inhibiting ouabain sensitive Na+-K+-ATPase [2]: ≥ 100 fold
